Columns and labels:
human Ox2R = target: T1, human Ox2R (Homo sapiens, UniProt O43614); experiment: Measurement of OX2R agonist activity (cell-based calcium release assay); conditions: hOx2R-CHO Flp-In cells, n≥2 tests; for EC50: intracellular calcium, read-out: EC50; for Emax: normalized to assay buffer (0%) and 10 μM Danavorexton (100%), read-out: Emax (%)
T1 construct: The gene encoding hOx2R was subcloned into the expression plasmid pcDNA5/FRT/TO; expressed in transfected cells; host or cells: CHO Flp-In cells (pcDNA5/FRT/TO with pOG44 Flp recombinase vector, hygromycin B selection)
T1 sequence (O43614 1-444): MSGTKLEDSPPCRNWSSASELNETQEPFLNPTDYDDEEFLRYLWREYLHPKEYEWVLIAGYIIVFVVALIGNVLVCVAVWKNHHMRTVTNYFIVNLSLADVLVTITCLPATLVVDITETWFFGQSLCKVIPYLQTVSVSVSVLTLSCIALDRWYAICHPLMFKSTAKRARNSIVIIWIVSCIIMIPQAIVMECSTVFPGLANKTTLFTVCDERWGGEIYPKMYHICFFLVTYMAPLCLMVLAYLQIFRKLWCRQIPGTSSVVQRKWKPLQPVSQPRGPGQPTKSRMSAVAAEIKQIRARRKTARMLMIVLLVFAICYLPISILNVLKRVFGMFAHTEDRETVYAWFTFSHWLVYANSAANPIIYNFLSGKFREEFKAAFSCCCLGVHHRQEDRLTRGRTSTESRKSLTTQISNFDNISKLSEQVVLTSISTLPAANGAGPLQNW
How it was run: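 CHO Flp-In cells stably expressing human Ox2R, dye-loaded 1 h at 37 °C in HBSS/20 mM HEPES pH 7.4 with 2.5 mM probenecid and 10 mM CaCl2, then stimulated with compound.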

P-gp (MDR1) = target: T2, P-gp (MDR1) (Homo sapiens, UniProt P08183); experiment: MDR1-MDCKII assay (bidirectional transport); assay type: in vitro ADME; conditions: MDCK-MDR1, pH 7.4, test compound 0.5 μM, MDR1-MDCKII monolayer; for efflux ratio at 0.5 μM: read-out: ER (efflux ratio); for Papp A→B at 0.5 μM: apical to basolateral
T2 construct: host or cells: MDCKII (canine kidney) cells transfected with human MDR1
T2 sequence (P08183 whole entry): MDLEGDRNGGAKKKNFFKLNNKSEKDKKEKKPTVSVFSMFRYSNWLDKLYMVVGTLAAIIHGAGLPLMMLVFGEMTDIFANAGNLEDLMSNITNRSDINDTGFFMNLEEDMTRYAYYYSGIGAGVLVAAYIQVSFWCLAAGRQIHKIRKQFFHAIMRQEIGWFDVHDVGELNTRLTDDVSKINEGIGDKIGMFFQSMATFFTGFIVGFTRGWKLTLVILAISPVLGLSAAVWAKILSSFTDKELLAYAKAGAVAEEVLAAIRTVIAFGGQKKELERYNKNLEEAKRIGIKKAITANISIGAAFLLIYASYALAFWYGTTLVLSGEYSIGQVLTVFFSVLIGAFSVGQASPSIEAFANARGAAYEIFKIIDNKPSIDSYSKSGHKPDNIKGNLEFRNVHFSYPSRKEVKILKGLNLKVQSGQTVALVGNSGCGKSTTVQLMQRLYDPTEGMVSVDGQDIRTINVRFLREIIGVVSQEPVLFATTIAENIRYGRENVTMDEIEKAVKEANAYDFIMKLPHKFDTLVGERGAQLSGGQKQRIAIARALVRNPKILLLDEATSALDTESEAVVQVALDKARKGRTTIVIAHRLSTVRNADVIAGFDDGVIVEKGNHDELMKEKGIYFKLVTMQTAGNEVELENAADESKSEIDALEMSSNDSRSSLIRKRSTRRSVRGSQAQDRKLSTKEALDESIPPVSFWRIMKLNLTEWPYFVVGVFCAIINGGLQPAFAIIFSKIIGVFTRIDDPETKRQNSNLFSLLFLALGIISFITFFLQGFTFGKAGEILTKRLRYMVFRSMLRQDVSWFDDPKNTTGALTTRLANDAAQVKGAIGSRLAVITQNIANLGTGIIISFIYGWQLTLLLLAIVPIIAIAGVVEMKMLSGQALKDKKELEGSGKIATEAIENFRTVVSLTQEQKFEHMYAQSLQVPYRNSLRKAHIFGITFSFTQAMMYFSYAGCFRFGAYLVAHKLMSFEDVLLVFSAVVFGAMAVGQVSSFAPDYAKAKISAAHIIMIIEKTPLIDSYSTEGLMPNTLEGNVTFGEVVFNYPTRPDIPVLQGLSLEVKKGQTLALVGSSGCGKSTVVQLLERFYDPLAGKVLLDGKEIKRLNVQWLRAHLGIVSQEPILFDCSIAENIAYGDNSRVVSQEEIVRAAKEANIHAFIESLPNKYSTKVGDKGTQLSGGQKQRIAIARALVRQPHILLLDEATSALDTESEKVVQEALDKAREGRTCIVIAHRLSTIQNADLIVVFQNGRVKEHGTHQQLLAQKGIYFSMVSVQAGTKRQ
Experimental: Bidirectional transport in MDCKII cells transfected with human MDR1 were assessed according to previously published methodology (Langthaler, K. et al. (2024). Fluids Barriers CNS, 21 (11): 1-15). In brief, cells obtained from the Netherlands Cancer Institute were maintained at 37° C. in α-MEM containing 10% FBS, 100 μg/mL penicillin-G, 100 μg/mL streptomycin, 1% non-essential amino acid under culture conditions of 5% CO2 and 95% relative humidity. Transport of test compound (0.5 μM, 0.4% DMSO final concentrations) across the cell monolayer was determined in triplicate on a single test occasion along with controls for low and high permeability (fenoterol and metoprolol, 2 μM) and P-gp efflux (digoxin, 10 μM). Each compound was loaded onto either the apical side (75 μL) or basolateral side (275 μL) with transport buffer (1% BSA in HBSS with 10 mM HEPES (pH 7.4)) on the opposing side of the cells (e.g. 50 μL or 250 μL on the apical or basolateral side). A sample (25 μL) from the donor compartment was taken 30 s after test compound is loaded onto the plate, resulting in a final incubation volume of 50 μL and 250 μL on apical and basolateral sides respectively. At the end of the incubation period, samples (75 μL) were taken from both sides. The donor samples (25 μL) were firstly diluted with transport buffer (50 μL) and then all samples were quenched in acetonitrile (125 μL) containing internal analytical standards. After centrifugation (20 min, 3220 g, 4° C.) the supernatants were analysed by LC-MS/MS. The apparent permeability coefficient (Papp) and efflux ratio (ER) were calculated using the equations below; where dCr/dt is the compound concentration in the receiver chamber as a function of time (μM/s); Vr is the solution volume in the receiver chamber; A is the surface area of the cell monolayer; C0 is the initial concentration in the donor compartment; and Papp A-B and Papp B-A refer to the apparent permeabilities in the respective directions. Compound permeability is classified as low, moderate, or high according to Papp value binning classifications: <1, 1 to 6 or >6×10^−6 cm/s, respectively. The ER is employed to classify compounds as unlikely, possible, or likely P-gp substrates when ER was: <1.5, 1.5 to <2 or >2, respectively.

| SMILES | EC50 (human Ox2R) | Emax (human Ox2R) | efflux ratio at 0.5 μM (P-gp (MDR1)) | Papp A→B at 0.5 μM (P-gp (MDR1)) |
| --- | --- | --- | --- | --- |
| O=S(=O)(N[C@H]1CC[C@@]2(Cc3cc(c(F)cc3F)-c3cccc(F)c3OCc3coc2n3)C1)C1CC1 [Example 104, N-[(1′S,14R)-6,17,19-trifluorospiro[8,12-dioxa-21-azatetracyclo[14.3.1.110,13.02,7]henicosa-1(19),2,4,6,10,13(21),16(20),17-octaene-14,3′-cyclopentane]-1′-yl]cyclopropanesulfonamide] | 0.08 nM | 100% | 1.6 | 9.52 ×10⁻⁶ cm/s |
| CS(=O)(=O)N[C@H]1CC[C@@]2(Cc3cc(c(F)cc3F)-c3cc(F)cc(F)c3OCc3coc2n3)C1 [Example 30, N-[(1′S,14R)-4,6,17,19-tetrafluorospiro[8,12-dioxa-21-azatetracyclo[14.3.1.110,13.02,7]henicosa-1(19),2,4,6,10,13(21),16(20),17-octaene-14,3′-cyclopentane]-1′-yl]methanesulfonamide] | 0.077 nM | 97% | 1.8 | 9.04 ×10⁻⁶ cm/s |
| CS(=O)(=O)N[C@H]1CC[C@@]2(CO[C@H]3CC[C@H](CC3)c3cccc(n3)OCc3coc2n3)C1 [Example 42, N-[(1s,1′S,13S,16s)-spiro[7,11,15-trioxa-21,22-diazatetracyclo[14.2.2.12,6.19,12]docosa-2,4,6(22),9,12(21)-pentaene-13,3′-cyclopentane]-1′-yl]methanesulfonamide] | 0.062 nM | 98% | 1 | 13 ×10⁻⁶ cm/s |
| CS(=O)(=O)NC1CC[C@@]2(CO[C@H]3CC[C@H](CC3)c3cccc(F)c3OCc3coc2n3)C1 (stereo partly drawn) [Example 100, N-[(1R,1′S,14S,17R)-6-fluorospiro[8,12,16-trioxa-22-azatetracyclo[15.2.2.110,13.02,7]docosa-2,4,6,10,13(22)-pentaene-14,3′-cyclopentane]-1′-yl]methanesulfonamide] | 0.037 nM | 100% | 1.8 | 10.2 ×10⁻⁶ cm/s |
| Cc1oc2nc1COc1c(F)cccc1-c1cc(ccc1F)C[C@@]21CC[C@H](NS(C)(=O)=O)C1 [Example 25, N-[(1′S,14R)-6,19-difluoro-11-methyl-spiro[8,12-dioxa-21-azatetracyclo[14.3.1.110,13.02,7]henicosa-1(19),2,4,6,10,13(21),16(20),17-octaene-14,3′-cyclopentane]-1′-yl]methanesulfonamide] | 0.066 nM | 97% | 2 | 8.2 ×10⁻⁶ cm/s |
| CS(=O)(=O)N[C@H]1CC[C@@]2(Cc3cc(c(F)cc3F)-c3cccc(F)c3OCc3csc2n3)C1 [Example 36, N-[(1′S,14R)-6,17,19-trifluorospiro[8-oxa-12-thia-21-azatetracyclo[14.3.1.110,13.02,7]henicosa-1(19),2,4,6,10,13(21),16(20),17-octaene-14,3′-cyclopentane]-1′-yl]methanesulfonamide] | 0.058 nM | 100% | 1.1 | 8.23 ×10⁻⁶ cm/s |
| CS(=O)(=O)N[C@@H]1C[C@]2(Cc3ccc(F)c(c3)-c3cccc(F)c3OCc3coc2n3)[C@H]2C[C@@H]12 [Example 117, N-[(1′R,2′R,5′S,14R)-6,19-difluorospiro[8,12-dioxa-21-azatetracyclo[14.3.1.110,13.02,7]henicosa-1(20),2,4,6,10,13(21),16,18-octaene-14,4′-bicyclo[3.1.0]hexane]-2′-yl]methanesulfonamide] | 0.048 nM | 100% | 1.9 | 9.31 ×10⁻⁶ cm/s |

Now from value to compound:

| EC50 (human Ox2R) | Emax (human Ox2R) | efflux ratio at 0.5 μM (P-gp (MDR1)) | Papp A→B at 0.5 μM (P-gp (MDR1)) | SMILES |
| --- | --- | --- | --- | --- |
| 0.054 nM | 95% | 1.3 | 6.47 ×10⁻⁶ cm/s | O=S(=O)(CF)N[C@H]1CC[C@@]2(Cc3ccc(F)c(c3)-c3cccc(F)c3OCc3coc2n3)C1 [Example 113, N-[(1′S,14R)-6,19-difluorospiro[8,12-dioxa-21-azatetracyclo[14.3.1.110,13.02,7]henicosa-1(20),2,4,6,10,13(21),16,18-octaene-14,3′-cyclopentane]-1′-yl]-1-fluoro-methanesulfonamide] |
| 0.064 nM | 99% | 1.3 | 11.5 ×10⁻⁶ cm/s | CS(=O)(=O)N[C@H]1CC[C@@]2(Cc3ccc(F)c(c3)-c3cccc(F)c3OCc3coc2n3)C1 [Example 8, N-[(1′S,14R)-6,19-difluorospiro[8,12-dioxa-21-azatetracyclo[14.3.1.110,13.02,7]henicosa-1(19),2,4,6,10,13(21),16(20),17-octaene-14,3′-cyclopentane]-1′-yl]methanesulfonamide] |
| 0.035 nM | 97% | 1.1 | 10.2 ×10⁻⁶ cm/s | CS(=O)(=O)N[C@H]1CC[C@@]2(Cc3cc(c(F)cc3F)-c3cccc(F)c3OCc3coc2n3)C1 [Example 39, N-[(1′S,14R)-6,17,19-trifluorospiro[8,12-dioxa-21-azatetracyclo[14.3.1.110,13.02,7]henicosa-1(19),2,4,6,10,13(21),16(20),17-octaene-14,3′-cyclopentane]-1′-yl]methanesulfonamide] |
| 0.083 nM | 100% | 1.4 | 9.89 ×10⁻⁶ cm/s | CCS(=O)(=O)N[C@H]1CC[C@@]2(Cc3ccc(F)c(c3)-c3cccc(F)c3OCc3coc2n3)C1 [Example 21, N-[(1′S,14R)-6,19-difluorospiro[8,12-dioxa-21-azatetracyclo[14.3.1.110,13.02,7]henicosa-1(19),2,4,6,10,13(21),16(20),17-octaene-14,3′-cyclopentane]-1′-yl]ethanesulfonamide] |
| 0.068 nM | 98% | 1.5 | 3.87 ×10⁻⁶ cm/s | O=S(=O)(N[C@H]1CC[C@@]2(Cc3ccc(F)c(c3)-c3cccc(F)c3OCc3coc2n3)C1)C1(F)CC1 [Example 116, N-[(1′S,14R)-6,19-difluorospiro[8,12-dioxa-21-azatetracyclo[14.3.1.110,13.02,7]henicosa-1(20),2,4,6,10,13(21),16,18-octaene-14,3′-cyclopentane]-1′-yl]-1-fluoro-cyclopropanesulfonamide] |
| 0.051 nM | 99% | 1 | 9.31 ×10⁻⁶ cm/s | CS(=O)(=O)N[C@H]1CC[C@@]2(Cc3ccc(Cl)c(c3)-c3cccc(F)c3OCc3coc2n3)C1 [Example 16, N-[(1′S,14R)-19-chloro-6-fluoro-spiro[8,12-dioxa-21-azatetracyclo[14.3.1.110,13.02,7]henicosa-1(19),2,4,6,10,13(21),16(20),17-octaene-14,3′-cyclopentane]-1′-yl]methanesulfonamide] |
